From patent US9440964B2, “Pesticidal compositions and processes related thereto” (Dow AgroSciences LLC, priority 2011, dated 2016)

Columns and labels:
[1] = system: CEW (Helicoverpa zea); assay: Bioassay on Corn Earworm (CEW), 128-well diet tray; type: in vivo; conditions: percent mortality, second instar larvae, five to seven days; for pest or weed control at 0.5 µg/cm2 / pest or weed control at 50 µg/cm2: Helicoverpa zea, 168 h; for pest or weed control at 0.5 µg/cm2: 0.5 μg/cm^2 on diet, read-out: Rating CEW (*Tested at 0.5 μg/cm^2); for pest or weed control at 50 µg/cm2: 50 μg/cm^2 on diet, read-out: Rating CEW
Protocol: (§1) Certain molecules disclosed in this document were tested against BAW and CEW using procedures described in the following examples. In the reporting of the results, the “BAW & CEW Rating Table” was used (See Table Section).
Bioassays on CEW (Helicoverpa zea)
(§2) Trays were covered with a clear self-adhesive cover and held at 25° C., 14:10 light-dark for five to seven days. Percent mortality was recorded for the larvae in each well; activity in the eight wells was then averaged. The results are indicated in the table entitled “Table ABC: Biological Results” (See Table Section).

[2] = system: BAW (Spodoptera exigua); assay: Bioassay on Beet Armyworm (BAW), 128-well diet tray; type: in vivo; conditions: percent mortality, second instar larvae, five to seven days; for pest or weed control at 50 µg/cm2: Spodoptera exigua, 168 h, 50 μg/cm^2 on diet, read-out: Rating BAW
Protocol: as §1
Bioassays on BAW (Spodoptera exigua)
as §2

With CC(C)c1cc(F)ccc1N1C(=O)CS/C1=N\C(=O)Nc1ccc(-c2ncn(-c3ccc(OC(F)(F)F)cc3)n2)cc1 [Molecule A117] the pest or weed control at 0.5 µg/cm2 [1] was 50 to 100% and the pest or weed control at 50 µg/cm2 [2] was 50 to 100%.
Compound Cc1ccc(N/C(S)=N/C(=O)Nc2ccc(-c3ncn(-c4ccc(OC(F)(F)F)cc4)n3)cc2)c(C)c1 [Molecule A68] has a pest or weed control at 0.5 µg/cm2 [1] of 50 to 100% and a pest or weed control at 50 µg/cm2 [2] of 50 to 100%.
In the case of Cc1ccc(N/C(S)=N/C(=O)Nc2ccc(-c3ncn(-c4ccc(OC(F)(F)F)cc4)n3)cc2)c(Cl)c1 [Molecule A73], the pest or weed control at 0.5 µg/cm2 [1] is reported as 50 to 100% and the pest or weed control at 50 µg/cm2 [2] is reported as 50 to 100%.
Work on Cc1cccc(Cl)c1N1C(=O)CS/C1=N\C(=O)Nc1ccc(-c2ncn(-c3ccc(OC(F)(F)F)cc3)n2)cc1 [Molecule A74] yielded a pest or weed control at 0.5 µg/cm2 [1] of 50 to 100% and a pest or weed control at 50 µg/cm2 [2] of 50 to 100%.
In the case of Cc1cc(C)c(N/C(=N\C(=O)Nc2ccc(-c3ncn(-c4ccc(OC(F)(F)F)cc4)n3)cc2)SCOC(=O)C(C)C)c(C)c1 [Molecule A59], the pest or weed control at 50 µg/cm2 [1] is reported as 50 to 100% and the pest or weed control at 50 µg/cm2 [2] is reported as 50 to 100%.
For Cc1ccc(F)c(N2C(=O)CS/C2=N\C(=O)Nc2ccc(-c3ncn(-c4ccc(OC(F)(F)F)cc4)n3)cc2)c1 [Molecule A94], the pest or weed control at 0.5 µg/cm2 [1] was 50 to 100% and the pest or weed control at 50 µg/cm2 [2] was 50 to 100%.
Compound Cc1ccc(N2C(=O)CS/C2=N\C(=O)Nc2ccc(-c3ncn(-c4ccc(OC(F)(F)F)cc4)n3)cc2)c(C(C)C)c1 [Molecule A88] has a pest or weed control at 0.5 µg/cm2 [1] of 50 to 100% and a pest or weed control at 50 µg/cm2 [2] of 50 to 100%.
Compound Cc1cccc(C)c1N/C(S)=C/C(=O)Nc1ccc(-c2ncn(-c3ccc(OC(F)(F)F)cc3)n2)cc1 [Molecule A23, 3-((2,6-dimethylphenyl)amino)-3-thioxo-N-(4-(1-(4-(trifluoromethoxy)phenyl)-1H-1,2,4-triazol-3-yl)phenyl)propanamide] has a pest or weed control at 50 µg/cm2 [1] of 50 to 100% and a pest or weed control at 50 µg/cm2 [2] of 50 to 100%.
Cc1c(F)cccc1N1C(=O)CS/C1=N\C(=O)Nc1ccc(-c2ncn(-c3ccc(OC(F)(F)F)cc3)n2)cc1 [Molecule A93] gave a pest or weed control at 0.5 µg/cm2 [1] of 50 to 100% and a pest or weed control at 50 µg/cm2 [2] of 50 to 100%.
For Cc1cc(C)c(N2/C(=N/C(=O)Nc3ccc(-c4ncn(-c5ccc(OC(F)(F)F)cc5)n4)cc3)SCC2C)c(C)c1 (stereo not shown) [Molecule A40], the “Rating CEW (**Tested at 12.5 μg/cm^2)” value ([1]; 12.5 μg/cm^2 on diet) was “A** (50-100)” and the “Rating BAW (**Tested at 12.5 μg/cm^2)” value ([2]; 12.5 μg/cm^2 on diet) was “A** (50-100)”.
For Cc1ccccc1NC(=O)NC(=O)Nc1ccc(-c2ncn(-c3ccc(OC(F)(F)F)cc3)n2)cc1 [Molecule A51], the pest or weed control at 50 µg/cm2 [1] was 50 to 100% and the pest or weed control at 50 µg/cm2 [2] was 50 to 100%.
CC(C)(C)c1ccccc1N/C(S)=N/C(=O)Nc1ccc(-c2ncn(-c3ccc(OC(F)(F)F)cc3)n2)cc1 [Molecule A67] gave a pest or weed control at 0.5 µg/cm2 [1] of 50 to 100% and a pest or weed control at 50 µg/cm2 [2] of 50 to 100%.
Cc1cc(C)c(N/C(S)=N/C(=O)Nc2ccc(-c3ncn(-c4ccc(OC(F)(F)F)cc4)n3)cc2)c(C)c1 [Molecule A49] was tested, and the pest or weed control at 50 µg/cm2 [1] was 50 to 100% and the pest or weed control at 50 µg/cm2 [2] was 50 to 100%.
CCC1CS/C(=N\C(=O)Nc2ccc(-c3ncn(-c4ccc(OC(F)(F)F)cc4)n3)cc2)N1c1c(C)cc(C)cc1C (stereo not shown) [Molecule A38] was tested, and the pest or weed control at 50 µg/cm2 [1] was 50 to 100% and the pest or weed control at 50 µg/cm2 [2] was 50 to 100%.
Cc1cccc(N2C(=O)CS/C2=N\C(=O)Nc2ccc(-c3ncn(-c4ccc(OC(F)(F)F)cc4)n3)cc2)c1C [Molecule A75] gave a pest or weed control at 0.5 µg/cm2 [1] of 50 to 100% and a pest or weed control at 50 µg/cm2 [2] of 50 to 100%.
Cc1ccccc1N/C(S)=C(\C#N)C(=O)Nc1ccc(-c2ncn(-c3ccc(OC(F)(F)F)cc3)n2)cc1 [Molecule A29, (Z)-2-Cyano-3-mercapto-3-(o-tolylamino)-N-(4-(1-(4-(trifluoromethoxy)phenyl)-1H-1,2,4-triazol-3-yl)phenyl)acrylamide] was tested, and the pest or weed control at 50 µg/cm2 [1] was 50 to 100% and the pest or weed control at 50 µg/cm2 [2] was 0 to 50%.
With CC(C)c1ccccc1NC(=O)NC(=O)Nc1ccc(-c2ncn(-c3ccc(OC(F)(F)F)cc3)n2)cc1 [Molecule A13, 1-(2-isopropylphenyl)-3-[[4-[1-[4-(trifluoromethoxy)phenyl]-1,2,4-triazol-3-yl]phenyl]carbamoyl]urea] the pest or weed control at 50 µg/cm2 [1] was 50 to 100% and the pest or weed control at 50 µg/cm2 [2] was 50 to 100%.
